Test results reported in patent US12568972B2, “Pyridazinol compounds and derivatives, preparation methods, herbicidal compositions and applications thereof” (Qingdao Kingagroot Chemical Compound Co., Ltd., priority 2018, dated 2026).

What was measured:
Assay in all cases: Post-emergence test, weed control effect
Assay type in all cases: in vivo
Conditions in all cases: Dose 3000 g/ha, after 3 weeks
[1] = system: Amaranthus retroflexus
Outline: (§1)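 Weeds sown in soil-filled pots and sprayed at 2-3 leaf stage (2-3 weeks after sowing) with compound in acetone/Tween-80/water plus 80% vegetable oil methyl ester synergist at 1500 g/ha. After 3 weeks in the greenhouse, fresh-weight growth inhibition scored on a 0-10 scale (10 = completely dead).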

[2] = system: Chenopodiaceae
Outline: as §1

[3] = system: Rorippa indica
Outline: as §1

[4] = system: Veronica polita
Outline: as §1

CCc1cnn(C)c1-c1nnc(C(F)(F)F)cc1O [Compound 809]
10: weed control effect (activity level), Amaranthus retroflexus [1] | weed control effect (activity level), Chenopodiaceae [2] | weed control effect (activity level), Rorippa indica [3] | weed control effect (activity level), Veronica polita [4]

Cn1ncc(C2CC2)c1-c1nnc(C(F)(F)F)cc1O [Compound 810]
10: weed control effect (activity level), Amaranthus retroflexus [1] | weed control effect (activity level), Chenopodiaceae [2] | weed control effect (activity level), Rorippa indica [3] | weed control effect (activity level), Veronica polita [4]

COc1cnn(C)c1-c1nnc(C(F)(F)F)cc1O [Compound 811]
10: weed control effect (activity level), Amaranthus retroflexus [1] | weed control effect (activity level), Chenopodiaceae [2] | weed control effect (activity level), Rorippa indica [3] | weed control effect (activity level), Veronica polita [4]

CCOc1cnn(C)c1-c1nnc(C(F)(F)F)cc1O [Compound 812]
10: weed control effect (activity level), Amaranthus retroflexus [1] | weed control effect (activity level), Chenopodiaceae [2] | weed control effect (activity level), Rorippa indica [3] | weed control effect (activity level), Veronica polita [4]

Cn1ncc(OCc2ccccc2)c1-c1nnc(C(F)(F)F)cc1O [Compound 813]
10: weed control effect (activity level), Amaranthus retroflexus [1] | weed control effect (activity level), Chenopodiaceae [2] | weed control effect (activity level), Rorippa indica [3] | weed control effect (activity level), Veronica polita [4]

CN(C)c1cnn(C)c1-c1nnc(C(F)(F)F)cc1O [Compound 816]
10: weed control effect (activity level), Amaranthus retroflexus [1] | weed control effect (activity level), Chenopodiaceae [2] | weed control effect (activity level), Rorippa indica [3] | weed control effect (activity level), Veronica polita [4]

Cn1ncc(C#N)c1-c1nnc(C(F)(F)F)cc1O [Compound 820]
10: weed control effect (activity level), Amaranthus retroflexus [1] | weed control effect (activity level), Chenopodiaceae [2] | weed control effect (activity level), Rorippa indica [3] | weed control effect (activity level), Veronica polita [4]

Cn1ncc(C(F)(F)F)c1-c1nnc(C(F)(F)F)cc1O [Compound 823]
10: weed control effect (activity level), Amaranthus retroflexus [1] | weed control effect (activity level), Chenopodiaceae [2] | weed control effect (activity level), Rorippa indica [3] | weed control effect (activity level), Veronica polita [4]

Cn1ncc(C(F)F)c1-c1nnc(C(F)(F)F)cc1O [Compound 824]
10: weed control effect (activity level), Amaranthus retroflexus [1] | weed control effect (activity level), Chenopodiaceae [2] | weed control effect (activity level), Rorippa indica [3] | weed control effect (activity level), Veronica polita [4]

Cn1ncc(CC(F)(F)F)c1-c1nnc(C(F)(F)F)cc1O [Compound 825]
10: weed control effect (activity level), Amaranthus retroflexus [1] | weed control effect (activity level), Chenopodiaceae [2] | weed control effect (activity level), Rorippa indica [3] | weed control effect (activity level), Veronica polita [4]

CCn1nccc1-c1nnc(C(F)(F)F)cc1O [Compound 826]
10: weed control effect (activity level), Amaranthus retroflexus [1] | weed control effect (activity level), Chenopodiaceae [2] | weed control effect (activity level), Rorippa indica [3] | weed control effect (activity level), Veronica polita [4]

CCn1nc(C2CC2)cc1-c1nnc(C(F)(F)F)cc1O [Compound 827]
10: weed control effect (activity level), Amaranthus retroflexus [1] | weed control effect (activity level), Chenopodiaceae [2] | weed control effect (activity level), Rorippa indica [3] | weed control effect (activity level), Veronica polita [4]

CC(C)n1nccc1-c1nnc(C(F)(F)F)cc1O [Compound 828]
10: weed control effect (activity level), Amaranthus retroflexus [1] | weed control effect (activity level), Chenopodiaceae [2] | weed control effect (activity level), Rorippa indica [3] | weed control effect (activity level), Veronica polita [4]
